Tests used:
tumor‐free mice = system: tumor‐free mice; design: method as in Tseng et al, 2015a; conditions: ref Tseng et al, 2015a, cited from earlier work
serum cytokines = assay: Serum cytokine panel (multiplex), terminal samples from Study 2; format: in vivo, mouse
Experimental: This confirmatory study was performed exactly as Study 1 with expanded animal numbers. Tumor‐free control groups were maintained at 6 animals each, whereas 10 animals were included in each of the tumor‐bearing groups. […] Grip strength was measured on study days 0 (baseline) and 16. Due to rapid model progression, this study was terminated on day 17 after only 12 days of treatment.
Serum cytokine panel analyses were performed by a commercial vendor (Eve Technologies, Calgary, Canada) as previously described (Tseng et al, 2015a). Serum interleukin‐6 (IL‐6) was measured using a commercial ELISA kit (R&D Systems, Minneapolis, MN, USA) according to the manufacturer's instructions.

[1] = AR‐42 plasma and tissue pharmacokinetics, single oral dose, tumor‐free CD2F1 mice; format: in vivo, mouse; conditions: for Plasma exposure: mouse
Experimental: Pharmacokinetic studies were performed as previously described (Cheng et al, 2016) with the following modifications. Seven week‐old, male, tumor‐free CD2F1 mice (n = 3 per dose and time point) were administered single oral doses of 10, 20, and 50 mg/kg AR‐42 and then sacrificed 0.25, 4, and 24 h later. Fifty milligrams of gastrocnemius muscle tissue was flash‐frozen in 2 ml BeadBlaster™ 24 (MIDSCI; St. Louis, MO) tubes and stored at −80°C. Samples were homogenized for 6 cycles using a BeadBlaster 24 with analytical standards in 1 mL methanol and then centrifuged at 15,600 g (4°C) for 10 min. Supernatants were transferred to glass tubes, dried under nitrogen, and then reconstituted in 200 μl 40% methanol/0.1% formic acid. Plasma preparation and LC‐MS/MS analyses were performed as previously described (Sborov et al, 2017). Mouse plasma and muscle pharmacokinetic parameters were estimated as previously described with the exception of Cavg, which was calculated as AUCall/[dosing interval(h)].

C‐26 tumor‐bearing mice = assay: Initial AR‐42/GTx‐024 combination study (Study 1), male C‐26 tumor‐bearing mice; format: in vivo, mouse; conditions: Study 1, male, GTx‐024 15 mg/kg, AR‐42 10 mg/kg, or both
pSTAT3 in C‐26 tumors = assay: Phospho‐STAT3/STAT3 ELISA in C‐26 tumor tissues, Study 2; format: in vivo, mouse; conditions: Study 2, 10 mg/kg
Experimental: Expression of phospho‐STAT3 and total STAT3 in C‐26 tumor tissues was measured using commercial sandwich ELISA kits according to the manufacturer's instructions (PathScan® Phospho‐Stat3, #7300, and Total Stat3, #7305, Cell Signaling Technology, Danvers, MA).

[2] = system: atrogin‐1, MuRF‐1, CEBPδ expression; assay: qRT–PCR of atrophy‐related genes in gastrocnemius, Study 1; format: in vivo, mouse; conditions: GTx‐024 15 mg/kg, AR‐42 10 mg/kg, or both
Experimental: To generate muscle tissue RNA, 15 mg of gastrocnemius muscle tissue was lysed in 10 volumes of lysis buffer per tissue mass in prefilled 2.0‐ml tubes with 3.0 mm zirconium beads (MIDSCI; St. Louis, MO). Tubes were loaded into BeadBlaster™ 24 (MIDSCI; St. Louis, MO) and […] for five cycles of 5 s with a 30‐s pause between cycles. Lysate was collected, and RNA was isolated using the mirVana™ miRNA Isolation Kit, with phenol (Thermo Fisher; Waltham, MA). Samples were treated with DNA‐free DNA Removal Kit to eliminate any DNA contamination (Invitrogen, Carlsbad, CA). Total RNA (0.5 μg) was reverse‐transcribed using high‐capacity cDNA reverse transcription kit (Applied Biosystems, Foster City, CA) for 10 min at 25°C, 120 min at 37°C, and 5 min at 85°C (T100™ Thermal Cycler, Bio‐Rad). Real‐time qPCR was performed on the QuantStudio 7 system (Applied Biosystems, Foster City, CA) using the powerup SYBR Green Master Mix (Applied Biosystems, Foster City, CA). Cycling was performed using the QuantStudio 7 real‐time PCR software—2 min at 50°C and 10 min at 95°C—followed by 40 cycles of 15 s at 95°C and 1 min at 60°C. […] As transformed expression data are not normally distributed, statistical differences between treatment groups were determined by one‐way ANOVA followed by Dunnett's test on raw delta C t values.

[3] = C‐26 Tumor‐bearing, GTx‐024 15 mg/kg, AR‐42 10 mg/kg, or both, mean ± SD

Structure (SMILES): CC(C)[C@H](C(=O)Nc1ccc(C(=O)NO)cc1)c1ccccc1 [AR‐42]
- maximally tolerated dose in mice (tumor‐free mice; oral gavage every other day): 50 mg/kg
- effect on lower limb skeletal muscle masses relative to controls (tumor‐free mice; tumor‐free mice, 50 mg/kg every other day): no significant effects on lower limb skeletal muscle masses
- reduction in epididymal adipose tissue masses (tumor‐free mice; tumor‐free mice, 50 mg/kg oral every other day): ~50%
- GM‐CSF, serum (serum cytokines; [3]): 18.70 ± 3.77 pg/mL
- G‐CSF, serum (serum cytokines; [3]): 2782.18 ± 2191.30 pg/mL
- IL‐6, serum (serum cytokines; [3]): 256.59 ± 183.1 pg/mL
- IL‐17, serum (serum cytokines; [3]): 1.82 ± 0.85 pg/mL
- IP‐10, serum (serum cytokines; [3]): 215.35 ± 52.46 pg/mL
- KC, serum (serum cytokines; [3]): 363.38 ± 200.65 pg/mL
- LIF, serum (serum cytokines; [3]): 15.79 ± 5.15 pg/mL
- LIX, serum (serum cytokines; [3]): 2515.38 ± 3119.67 pg/mL
- M‐CSF, serum (serum cytokines; [3]): 20.21 ± 4.63 pg/mL
- effect on circulating cytokine levels (serum cytokines; Study 2, 10 mg/kg monotherapy, tumor‐bearing): did not significantly reduce circulating levels of any evaluated cytokine
- AUCall ([1]; 10 mg/kg oral, Muscle): 11,076.7 nM*h
- Cavg ([1]; 10 mg/kg oral, Muscle): 461.5 nM
- Cmax ([1]; 10 mg/kg oral, Muscle): 1.11 µM
- AUCall ([1]; 10 mg/kg oral, Plasma): 10,931.6 nM*h
- Cmax ([1]; 10 mg/kg oral, Plasma): 1.5 µM
- Cavg ([1]; 10 mg/kg oral, Plasma, AUCall/dosing interval): 455.5 nM
- gastrocnemius muscle concentration ([1]; 10 mg/kg oral, remained above for 4 h): above 700 nM
- AUCall ([1]; 20 mg/kg oral, Muscle): 36,504.2 nM*h
- Cavg ([1]; 20 mg/kg oral, Muscle): 1,521.0 nM
- Cmax ([1]; 20 mg/kg oral, Muscle): 3.66 µM
- AUCall ([1]; 20 mg/kg oral, Plasma): 34,369.3 nM*h
- Cavg ([1]; 20 mg/kg oral, Plasma): 1,432.1 nM
- Cmax ([1]; 20 mg/kg oral, Plasma): 3.86 µM
- AUCall ([1]; 50 mg/kg oral, Muscle): 72,624.7 nM*h
- Cavg ([1]; 50 mg/kg oral, Muscle): 3,026.2 nM
- Cmax ([1]; 50 mg/kg oral, Muscle): 6.37 µM
- AUCall ([1]; 50 mg/kg oral, Plasma): 74,307.3 nM*h
- Cavg ([1]; 50 mg/kg oral, Plasma): 3,096.1 nM
- Cmax ([1]; 50 mg/kg oral, Plasma): 7.93 µM
- mouse plasma exposure at 50 mg/kg over well‐tolerated human exposure ([1]; 74.3 vs 8.5 μM*h): 8.7 fold
- Plasma exposure ([1]; single oral dose 10 mg/kg): 10.9 µM·h
- Plasma exposure ([1]; single oral dose 50 mg/kg): 74.3 µM·h
- terminal body weight corrected for tumor mass (C‐26 tumor‐bearing mice; day 18, 13 days daily oral): 91.2 ± 3.7 % of tumor‐free controls
- terminal gastrocnemius mass (C‐26 tumor‐bearing mice; day 18): 94.3 ± 1.4 % of tumor‐free controls
- terminal quadriceps mass (C‐26 tumor‐bearing mice; day 18): 93.2 ± 6.3 % of tumor‐free controls
- pSTAT3 signaling within the C‐26 tumors (pSTAT3 in C‐26 tumors): did not significantly suppress
- atrogin‐1, MuRF‐1, CEBPδ expression in gastrocnemius relative to tumor‐bearing controls [2]: significantly reduced
